Columns and labels:
[1] = Solubility of BP in solvents; format: physicochemical
Propionibacterium acnes = conditions: versus clindamycin or erythromycin; Leyden 2001; cited from earlier work
[2] = water and most dermatologically safe solvents; cited from earlier work

O=C(OOC(=O)c1ccccc1)c1ccccc1 [BP, benzoyl peroxide]
Solubility of BP in absolute alcohol [1]: poor
Effectiveness in killing the bacteria responsible for causing acne (Propionibacterium acnes): more effective than either clindamycin or erythromycin
Solubility of BP in water [2]: virtually insoluble
